Measurements reported in article PMC2225439, “Amyloid as a Depot for the Formulation of Long-Acting Drugs” (PLoS Biology, 2008).

Key:
[1] = Thio T binding (amyloid fibril formation); type: physicochemical; set-up: key to Thio T Binding: b, binding; n, not binding; settings: 1 mg/ml in 5% D-mannitol, 0.01% sodium azide
Description: The kinetics of fibril formation in vitro is generally a slow process over several days or weeks, and can be monitored by the increase of fluorescence intensity of the cross-β-sheet–sensitive dye, Thio T [15]. Thio T fluorescence is thereby insignificant during the initial incubation period of amyloid aggregation due to the nonexistence of Thio T–sensitive β-sheet aggregates. After the initial phase, a time-dependent increase of fluorescence intensity is observed until a maximum intensity is reached, at which time maximal fibril formation has occurred. […] For the Thio T binding studies, all GnRH analogs were incubated at room temperature at a concentration of 1 mg/ml in 5% D-mannitol, conditions identical to the formulation used in the animal experiments. In addition, 0.01% sodium azide was added. The Thio T fluorescence was monitored daily for all analogs over a period of 21 d (Figure 1).
(§1) GnRH analogs were dissolved in a glass tube in 1 ml of 5% D-mannitol and 0.01% sodium azide at a concentration of 1 mg/ml. The GnRH analogs were then incubated at room temperature without stirring. The fibril formation was monitored by EM, CR, and time-resolved by Thio T binding studies. Three independent experiments were performed for each sample.
A 10-μl aliquot of peptide sample was diluted into 500 μl of water with 5% D-mannitol containing 0.01% (w/v) sodium azide. The solution was mixed with 10 μl of 1 mM Thio T prepared in the same solution. Fluorescence was measured immediately after addition of Thio T. The experiment was measured on a spectrofluorimeter (Photon Technology International) with excitation at 450 nm and emission at 482 nm. The fluorescence intensity at 482 nm was plotted against incubation time (day). A rectangular 10-mm quartz microcuvette was used. Three independent experiments were performed for each sample.

[2] = Electron microscopy of negative-stained samples; type: physicochemical; set-up: key to EM^8 / EM^30: fib, fibrils; nfib, no fibrils; settings: 1 mg/ml in 5% D-mannitol, room temperature, at least two independent experiments
Description: To formally determine the formation of amyloid fibrils by GnRH analogs and to characterize other possible assemblies present in the sample, EM was done on all of the GnRH analogs. Since the EM analysis is for a qualitative interpretation only, amyloid fibrils and other small aggregates might be observed under the electron microscope even if only a minority of the sample forms fibrils. Samples were studied after 8 and 30 d of incubation. […] The fibrils show a wide variety of morphologies, comprising helical ultrastructures with varying degrees of lateral association. Furthermore, the fibrils are composed of one or more filaments, resulting in overall diameters ranging from approximately 6 to 12 nm. No oligomers are observed for the long-acting compounds at day 8 or at day 30 (Figures 2 and S2).
as §1
A 5-μl aliquot of peptide sample was diluted into 50 μl of water to a peptide concentration of approximately 50 μM, spotted on a glow-discharged, carbon-coated Formvar grid (Electron Microscopy Sciences), incubated for 5 min, washed with distilled water, and then stained with 1% (w/v) aqueous uranyl formate solution. Uranyl formate solutions were filtered through 0.2-μm sterile syringe filters (Corning) before use. EM analysis was performed using a JEOL JEM-100CXII electron microscope at 80 kV with nominal magnifications between 36,000 and 72,000. Images were recorded digitally by using the SIS Megaview III imaging system. At least two independent experiments were carried out for each sample.

[3] = system: plasma luteinizing hormone (LH) levels; settings: duration of action class as listed in Table 1; castrated male rat assay; ref Tables S1 and S2; cited from earlier work
Text: Table 1 Biochemical and Biophysical Properties of Aggregates By GnRH-Analogs | column: Action || Supplement pbio.0060017.st001.doc, table 1: Table S1: Short acting GnRH analogs with their duration of action | column: Duration of action^b || Supplement pbio.0060017.st002.doc, table 1: Table S2: Long acting GnRH analogs with their duration of action | column: Duration of action^b || (+ 2 further places)

Congo red (CR) binding = type: physicochemical; set-up: key to Congo Red: b, binding; n, not binding; settings: analogs incubated for 30 d, 1 mg/ml in 5% D-mannitol, 0.01% sodium azide, room temperature; UV 300–700 nm and by eye; three independent experiments
Description: To confirm amyloid formation by GnRH analogs, CR binding was measured. CR, like Thio T, is a dye routinely used to detect β-sheet–rich assemblies. CR binding can be measured by the “red shift” change of its absorption maximum from 490 to 540 nm, by an increase of the dye's molar absorptivity, and in favorable cases by eye. All three types of measurements were performed with GnRH analogs incubated for 30 d. […] However, five short-acting GnRH analogs, i.e., S3, S4, S6, S10, and S11, bind CR, showing that some short-acting GnRH-analogs are able to form amyloids after prolonged incubation (see also below). In contrast to short-acting analogs, all long-acting analogs bind CR.
as §1
A 5-μl aliquot of peptide sample was mixed with 80 μl of PBS buffer containing 10% ethanol. Then 15 μl of a 100 μM CR solution (filtered through 0.2-μm filter) in PBS containing 10% ethanol was added. After mixing, UV was measured from 300–700 nm. For the measurement of the CR-only spectrum, 15 μl of CR solution with 85 μl of PBS containing 10% ethanol was prepared. As a control, a 5-μl aliquot of GnRH analog mixed with 95 μl of PBS containing 10% ethanol was measured. Three independent experiments were performed for each sample. In addition to the UV measurements, pictures of the cuvette containing the peptide sample and CR were taken to visually show the CR binding to the amyloids.

Ac-DNal-DCpa-Agl(Nic)-Ser-Aph(Ac)-DAph(Ac)-Leu-ILys-Pro-DAla-NH2 [L20]
Thio T Binding ([1]; room temperature without stirring, monitored daily over 21 d, fluorescence ex 450 nm / em 482 nm, three independent experiments): b | Thio T binding (in words) ([1]; room temperature, 21 d): bind significantly more Thio T during the entire experiment | EM^8 ([2]; electron microscopy at day 8 of incubation): fib | EM^30 ([2]; electron microscopy at day 30 of incubation): fib | Action [3]: intermediate | Congo Red (Congo red (CR) binding): b
